Measured values as given in patent US20190183900A1, “COMPOSITION FOR PROLIFERATION, DIFFERENTIATION PROMOTION, OR SENESCENCE INHIBITION OF STEM CELLS, CONTAINING JAK1 INHIBITOR AS ACTIVE INGREDIENT” (UNIVERSITY OF ULSAN FOUNDATION FOR INDUSTRY COOPERATION, priority 2016, published 2019).

What was measured:
[1] = test system: stem cells; test: Western blotting of senescence, stemness, proliferation and TLR3 signaling proteins; type: cell-based; conditions: JAK1 inhibitor pretreated 2 hours before poly IC 1 ug/ml, 2 days after poly IC
Procedure: More specifically, the stem cells were plated in a 10 cm dish (3×10^5 cells/dish) and treated with poly IC (1 ug/ml) one day later. […] After 2 days of poly IC treatment, western blotting was performed for analyzing the protein expression. For this, the cells were treated with RIPA lysis buffer (1% Np-40, 0.5% Na-deoxycholate, 0.4% SDS, 0.15 M NaCl, 0.05 M Tris-HCl (pH 8), Halt Protease and Phosphatase Inhibitor Cocktail (78440, Thermo Scientific)) and reacted in ice for 30 minutes to extract the cells. The cell lysate was centrifuged and the supernatant was collected and quantified using bicinchoninic acid protein assay kit (23225, Thermo Scientific). 10 ug of the protein extract was separated by 12% SDS-PAGE and transferred to a nitrocellulose membrane. After reacting for 1 h in blocking buffer (0.1% Tween 20, 5% BSA in tris buffered saline) at room temperature (RT), the primary antibody was treated and reacted overnight at 4° C. […] After washing three times with TBST solution, peroxidase-conjugated secondary antibody was reacted for 1 hour at RT and protein bands were analyzed using C-DiGit Blot Scanner (LI-COR).

[2] = test system: stem cells; test: real time PCR of senescence, stemness, proliferation and TLR3 signaling genes; type: cell-based; conditions: pre-treatment before poly IC
Procedure: The present inventors have confirmed the expression of proteins involved in proliferation and differentiation promotion of stem cell and stemness increase according to tofacitinib treatment using real time PCR. For this, cells were treated with TRIzol reagent to lyse the cells, and treated with chloroform to separate the aqueous solution layer containing the RNA. The separated aqueous solution was treated with isopropanol to precipitate RNA and centrifuged to extract RNA only. […] Real-time PCR was performed using the CFX Connect Real-Time PCR Detection System (Bio-rad) and primers used were shown in Table 1. Relative mRNA expression levels were analyzed using the comparative threshold cycles (2-^Ct) method.

[3] = test system: stem cells; test: real time PCR of TGF-b and HGF, proteins that inhibit T cell activity; type: cell-based; conditions: pre-treatment of tofacitinib before poly IC
Procedure: For this, cells were treated with TRIzol reagent to lyse the cells, and treated with chloroform to separate the aqueous solution layer containing the RNA. The separated aqueous solution was treated with isopropanol to precipitate RNA and centrifuged to extract RNA only. The extracted RNA was quantified using nanodrop. 2 ug of RNA was synthesized using TOPscript cDNA synthesis kit (RT200, Enzynomics) as a cDNA mixture and used as a template for real time PCR. […] Relative mRNA expression levels were analyzed using the comparative threshold cycles (2-^Ct) method.

[4] = test system: stem cells; test: BrdU assay of cell survival rate after poly IC; type: cell-based; conditions: tofacitinib 1 ug/ml pretreated 2 hours before poly IC 1 ug/ml; BrdU ELISA 2 days after poly IC
Procedure: More specifically, cells were plated in 96 wells (1×10^3 cells/well) and treated with poly IC (1 μg/ml) one day later. […] After 2 days of poly IC treatment, cell survival rate was measured using BrdU cell proliferation ELISA (11647229001, Roche). For this, the BrdU labeling solution was treated at 10 μl/well for 4 hours at 37° C. Then, fixdenat buffer was treated by 200 ul/well for 30 minutes to immobilize the cells and reacted with 100 ul/well of anti BrdU-POD solution for 90 minutes. Thereafter, 100 ul of the substrate solution was treated, the OD value at 370 nm wavelength was measured by ELISA, and the cell survival rate was plotted.

[5] = test system: stem cells; test: SA-b-gal staining of poly IC-induced inflammatory senescence; type: cell-based; conditions: tofacitinib 1 ug/ml pretreated 2 hours before poly IC 1 ug/ml; measured 2 days after poly IC
Procedure: More specifically, stem cells were plated in 6 wells (2×10^4 cells/well) and treated with poly IC (1 ug/ml) one day later. […] After 2 days of the poly IC treatment, the degree of senescence was measured using senescence cells histochemical staining kit (CS0030, Sigma). For this, the plate was washed twice with PBS and fixed with fixation buffer (2% formaldehyde, 0.2% glutaraldehyde, 7.04 mM Na2HPO4, 1.47 mM KH2PO4, 0.137 M NaCl, and 2.68 mM KCl) for 6 minutes and reacted with staining buffer (6 mM Potassium Ferricyanide, 6 mM Potassium Ferrocyanide, 1 mg/ml X-gal Solution in phosphate buffer (pH 6)) at 37° C. for 24 hours. The number of b-galactoxidase-positive cells was measured by microscopic observation and the degree of cellular senescence was shown in a graph.

[6] = test system: stem cells; conditions: FACS analysis and real time PCR; pre-treatment of tofacitinib before poly IC
Procedure: More specifically the stem cells were treated with trypsin/EDTA and separated into single cells and mouse anti-human HLA-ABC (555553, BD Biosciences) was reacted at RT for 1 hour and washed three times and then analyzed using a FACS calibur instrument (BD Biosciences).

Structure (SMILES) | expression of proteins associated with senescence (PCNA), stemness (EZH2, BMI-1), proliferation (survivin, CyclinD1) [1] | increase in expression of TLR3 signaling-related proteins (TLR3, IL6) [1] | increase in expression of TLR3 signaling-related proteins (TLR3, IL6) [2] | mRNA expression of the protein associated with senescence (PCNA), stemness (EZH2, BMI-1) and proliferation (survivin, CyclinD1) [2] | decrease of TGF-b and HGF by treatment of poly IC [3] | cell survival rate by cellular senescence induced by poly IC [4] | inflammatory senescence induced by poly IC (b-galactoxidase-positive cells) [5] | increase of immunogenicity-related proteins HLA-A and HLA-B by poly IC treatment [6]
O=C(Nc1nc2cccc(-c3ccc(CN4CCS(=O)(=O)CC4)cc3)n2n1)C1CC1 [filgotinib] | less decreased | less increased | less increased | less decreased |  |  |  | 
C[C@@H]1CCN(C(=O)CC#N)C[C@@H]1N(C)c1ncnc2[nH]ccc12 [tofacitinib] | less decreased | less increased | less increased | less decreased | less decreased | less decreased | significantly reduced | less increased
